# Assay results reported in PMC9151520 (Archives of Toxicology, 2022).
# Several values for one entry are separate records, joined by “and”; a condition that tells them apart may be missing. Identical values can stand only once. Like-named read-outs stand apart in the source and are kept apart here.
# Experiments:
# [1] = system: p53 signaling (p53RE-bla HCT-116 cells)
# [2] = system: p53 signaling (p53RE-bla HCT-116 cells); assay: cells; assay type: cell-based
# [3] = system: p53 signaling (p53RE-bla HCT-116 cells); remark: listed apart in the source
# [4] = Homo sapiens, HCT-116, read-out: p53 activation EC50, primary screening
# [5] = Homo sapiens, HCT-116, read-out: p53 activation efficacy, primary screening
# [6] = Homo sapiens, HCT-116, read-out: EC50, p53 activation, primary screening
# [7] = Homo sapiens, HCT-116, read-out: Efficacy, p53 activation, primary screening
# [8] = read-out: p53 activation EC50, cherry pick confirmation
# [9] = read-out: p53 activation EC50, primary screening
# [10] = Homo sapiens, HCT-116, read-out: p53 activation EC50, cherry pick confirmation
# [11] = Homo sapiens, HCT-116, read-out: p53 activation efficacy, cherry pick confirmation
Compound,"Viability EC50, cherry pick confirmation (p53RE-bla HCT-116 cells)","Viability EC50, primary screening (p53RE-bla HCT-116 cells)","Viability efficacy, cherry pick confirmation (p53RE-bla HCT-116 cells)","Viability efficacy, primary screening (p53RE-bla HCT-116 cells)","p53 activation EC50, cherry pick confirmation [1]","p53 activation EC50, primary screening [1]","p53 activation efficacy, cherry pick confirmation [1]","p53 activation efficacy, primary screening [1]","p53 activation efficacy, cherry pick confirmation [2]","EC50 [2, 4] [µM]","Emax [2, 5] [%]","p53 activation EC50, cherry pick confirmation [3]","p53 activation EC50, primary screening [3]","p53 activation efficacy, cherry pick confirmation [3]","p53 activation efficacy, primary screening [3]",further results
C=C(CC)C(=O)c1ccc(OCC(=O)O)c(Cl)c1Cl [Ethacrynic acid],inactive,inactive,inactive,inactive,inactive,inactive,inactive,inactive,inactive,8.57,27.2,inactive,inactive,inactive,inactive,"p53 activation EC50, cherry pick confirmation [2]: inactive"
CCOC(=O)CCN(SN(C)C(=O)Oc1cccc2c1OC(C)(C)C2)C(C)C [Benfuracarb],,,,,,,,,,,,,,,,Viability EC50 (p53RE-bla HCT-116 cells): inactive; Viability efficacy (p53RE-bla HCT-116 cells): inactive; p53 activation EC50 [1]: inactive; p53 activation EC50 [2]: inactive; p53 activation efficacy [2]: inactive; p53 activation EC50 [3]: inactive
"Oc1ccc(-c2ccc(O)cc2)cc1 [4,4'-Biphenyldiol]",,,,,,,,,,,,,,,,"EC50, viability, cherry pick confirmation (p53RE-bla HCT-116 cells): inactive; EC50, viability, primary screening (p53RE-bla HCT-116 cells): inactive; Efficacy, viability, cherry pick confirmation (p53RE-bla HCT-116 cells): inactive; Efficacy, viability, primary screening (p53RE-bla HCT-116 cells): inactive; EC50, p53 activation, cherry pick confirmation [1]: inactive; EC50, p53 activation, primary screening [1]: inactive; Efficacy, p53 activation, cherry pick confirmation [1]: inactive; Efficacy, p53 activation, primary screening [1]: inactive; EC50, p53 activation, cherry pick confirmation [2]: inactive; Efficacy, p53 activation, cherry pick confirmation [2]: inactive; EC50 [2, 6]: 35.4 µM; Emax [2, 7]: 48.2%; EC50, p53 activation, cherry pick confirmation [3]: inactive; EC50, p53 activation, primary screening [3]: inactive; Efficacy, p53 activation, cherry pick confirmation [3]: inactive; Efficacy, p53 activation, primary screening [3]: inactive"
Chlorpyrifos oxon,,,,,,,,,,,,,,,,Viability EC50 (p53RE-bla HCT-116 cells): inactive; Viability efficacy (p53RE-bla HCT-116 cells): inactive; EC50 [1]: 0.02 µM; p53 activation efficacy [1]: 33.1727 and 49.6483; p53 activation EC50 [2]: inactive; p53 activation efficacy [2]: inactive; p53 activation EC50 [3]: inactive; EC50 ([3]; read-out: p53 activation EC50): 2.91 µM
N#CSCSC#N [Methylene bis(thiocyanate)],,,,,inactive,inactive,inactive,inactive,39.736,,,inactive,inactive,inactive,inactive,"EC50 (p53RE-bla HCT-116 cells; read-out: Viability EC50, cherry pick confirmation): 38.1 µM and 36 µM and 40.4 µM; EC50 (p53RE-bla HCT-116 cells; read-out: Viability EC50, primary screening): 39.6 µM and 47 µM and 35.4 µM; p53 activation efficacy, primary screening [2]: 49.8917; EC50 [2, 8]: 10.1 µM; EC50 [2, 9]: 11.8 µM"
CCN(CC)CCNc1ccc(CO)c2sc3ccccc3c(=O)c12 [Hycanthone],,,,,,,,,,,,,,,,"EC50, viability, cherry pick confirmation (p53RE-bla HCT-116 cells): inactive; EC50, viability, primary screening (p53RE-bla HCT-116 cells): inactive; Efficacy, viability, cherry pick confirmation (p53RE-bla HCT-116 cells): inactive; Efficacy, viability, primary screening (p53RE-bla HCT-116 cells): inactive; EC50, p53 activation, cherry pick confirmation [1]: inactive; Efficacy, p53 activation, cherry pick confirmation [1]: inactive; EC50 ([2]; Homo sapiens, HCT-116, read-out: EC50, p53 activation, cherry pick confirmation): 18.4 µM; Emax ([2]; Homo sapiens, HCT-116, read-out: Efficacy, p53 activation, cherry pick confirmation): 500%; EC50, p53 activation, cherry pick confirmation [3]: inactive; Efficacy, p53 activation, cherry pick confirmation [3]: inactive"
COc1c(C)c2c(c(O)c1C/C=C(\C)CCC(=O)OCCN1CCOCC1)C(=O)OC2 [Mycophenolate mofetil],inactive,inactive,inactive,inactive,inactive,inactive,inactive,inactive,,0.163,36.3,inactive,inactive,inactive,inactive,"EC50 [2, 10]: 0.209 µM; Emax [2, 11]: 56.2%"
O=C(N/N=C/c1ccc([N+](=O)[O-])o1)c1ccc(O)cc1 [Nifuroxazide],inactive,inactive,inactive,inactive,inactive,inactive,inactive,inactive,,19.6,39.6,inactive,inactive,inactive,inactive,"EC50 [2, 10]: 10.2 µM; Emax [2, 11]: 47.4%"
CC(O)C(=O)O.CCOc1ccc2nc3cc(N)ccc3c(N)c2c1.O [Ethacridine lactate hydrate],inactive,inactive,inactive,inactive,inactive,inactive,inactive,inactive,145.785,,,inactive,inactive,inactive,inactive,"p53 activation efficacy, primary screening [2]: 113.254; EC50 [2, 8]: 19.1 µM; EC50 [2, 9]: 21.5 µM"
O=C(O)c1c(O)c(-c2ccccc2)nc2ccccc12 [Oxycinchophen],inactive,inactive,inactive,inactive,inactive,inactive,inactive,inactive,,16.6,60.5,inactive,inactive,inactive,inactive,"EC50 [2, 10]: 23.1 µM; Emax [2, 11]: 87.1%"
"Cc1cccc2sc3nncn3c12 [2,7,8,9-Tricyclazole]",,,,,,,,,,,,,,,,Viability EC50 (p53RE-bla HCT-116 cells): inactive; Viability efficacy (p53RE-bla HCT-116 cells): inactive; p53 activation EC50 [1]: inactive; p53 activation EC50 [2]: inactive; p53 activation efficacy [2]: inactive; p53 activation EC50 [3]: inactive
CCCSP(=S)(OCC)Oc1ccc(SC)cc1 (centres unmarked) [Sulprofos],inactive,inactive,inactive,inactive,,,,,inactive,,,inactive,,,,"EC50 [1, 8]: 6.95 µM; p53 activation EC50, cherry pick confirmation [2]: inactive; p53 activation EC50, primary screening [2]: inactive; p53 activation efficacy, primary screening [2]: inactive"
CNC(=O)Oc1cccc2c1OC(C)(C)C2 [Carbofuran],,,,,,,,,,,,,,,,Viability EC50 (p53RE-bla HCT-116 cells): inactive; Viability efficacy (p53RE-bla HCT-116 cells): inactive; p53 activation EC50 [1]: inactive; p53 activation EC50 [2]: inactive; p53 activation efficacy [2]: inactive; p53 activation EC50 [3]: inactive
C=CCOC(Cn1ccnc1)c1ccc(Cl)cc1Cl (centres unmarked) [Imazalil],,,,,,,,,,,,,,,,"EC50, viability, cherry pick confirmation (p53RE-bla HCT-116 cells): inactive; EC50, viability, primary screening (p53RE-bla HCT-116 cells): inactive; Efficacy, viability, cherry pick confirmation (p53RE-bla HCT-116 cells): inactive; Efficacy, viability, primary screening (p53RE-bla HCT-116 cells): inactive; EC50, p53 activation, cherry pick confirmation [1]: inactive; EC50, p53 activation, primary screening [1]: inactive; Efficacy, p53 activation, cherry pick confirmation [1]: inactive; Efficacy, p53 activation, primary screening [1]: inactive; EC50, p53 activation, cherry pick confirmation [2]: inactive; Efficacy, p53 activation, cherry pick confirmation [2]: inactive; EC50 [2, 6]: 49.6 µM; Emax [2, 7]: 41.7%; EC50, p53 activation, cherry pick confirmation [3]: inactive; EC50, p53 activation, primary screening [3]: inactive; Efficacy, p53 activation, cherry pick confirmation [3]: inactive; Efficacy, p53 activation, primary screening [3]: inactive"
CCC(C)c1cc([N+](=O)[O-])cc([N+](=O)[O-])c1OC(=O)OC(C)C (centres unmarked) [Dinobuton],inactive,inactive,inactive,inactive,inactive,inactive,inactive,inactive,inactive,49.5,74.7,inactive,inactive,inactive,inactive,"p53 activation EC50, cherry pick confirmation [2]: inactive"
